Ten compounds from PubChem BioAssay AID1745844 (Carcinogenic Potency Database (CPDB), 2022) can be followed below.

The subject of this data set is rodent lifetime carcinogenesis bioassay, tumor incidence TD50. The experiment in a line: carcinogenic potency in animals, long-term in vivo studies, CPDB compilation (AID 1745844).

Active and inactive are the calls of the source. How the calls were made is not given here.

For `CC(C)NCC(O)c1ccc(NS(C)(=O)=O)cc1` (configuration not stated), the TD50 is, setting by setting: (mouse, strain Charles River CD1, females, in feed, site: any site (literature study), lesion: benign tumor, dosed 78 weeks, study length 92 weeks) 1740 mg/kg/day (inactive); (mouse, strain Charles River CD1, females, in feed, site: any site (literature study), lesion: several types, types named in the paper, dosed 78 weeks, study length 92 weeks) 1910 mg/kg/day (inactive); (mouse, strain Charles River CD1, females, in feed, site: lung, lesion: adenoma, dosed 78 weeks, study length 92 weeks) 3500 mg/kg/day (inactive); (mouse, strain Charles River CD1, females, in feed, site: lung, lesion: carcinoma, dosed 78 weeks, study length 92 weeks) 24500 mg/kg/day (inactive); (mouse, strain Charles River CD1, males, in feed, site: lung, lesion: adenoma, dosed 78 weeks, study length 92 weeks) 31400 mg/kg/day (inactive); (rat, strain Long-Evans, females, in feed, site: any site (literature study), lesion: malignant tumor, dosed 78 weeks, study length 104 weeks) 1600 mg/kg/day (inactive). Further, the TD50 by setting is: (rat, strain Long-Evans, females, in feed, site: any site (literature study), lesion: several types, types named in the paper, dosed 78 weeks, study length 104 weeks) 477 mg/kg/day (inactive); (rat, strain Long-Evans, females, in feed, site: liver, lesion: cholangioma, dosed 78 weeks, study length 104 weeks) 12600 mg/kg/day (inactive); (rat, strain Long-Evans, males, in feed, site: any site (literature study), lesion: malignant tumor, dosed 78 weeks, study length 104 weeks) 2270 mg/kg/day (inactive); (rat, strain Long-Evans, males, in feed, site: any site (literature study), lesion: several types, types named in the paper, dosed 78 weeks, study length 104 weeks) 796 mg/kg/day (inactive); (rat, strain Long-Evans, males, in feed, site: liver, lesion: hepatocellular adenoma, dosed 78 weeks, study length 104 weeks) 309000 mg/kg/day (inactive); (rat, strain Long-Evans, males, in feed, site: liver, lesion: hepatocellular carcinoma, dosed 78 weeks, study length 104 weeks) 12400 mg/kg/day (inactive). Further, the carcinogen call runs as follows: (mouse, strain Charles River CD1, females, in feed, site: any site (literature study), lesion: malignant tumor, dosed 78 weeks, study length 92 weeks) “negative (inactive)”; (mouse, strain Charles River CD1, females, in feed, site: liver, lesion: one or several types, types not named, dosed 78 weeks, study length 92 weeks) “negative (inactive)”; (mouse, strain Charles River CD1, males, in feed, site: any site (literature study), lesion: benign tumor, dosed 78 weeks, study length 92 weeks) “negative (inactive)”; (mouse, strain Charles River CD1, males, in feed, site: any site (literature study), lesion: malignant tumor, dosed 78 weeks, study length 92 weeks) “negative (inactive)”; (mouse, strain Charles River CD1, males, in feed, site: any site (literature study), lesion: several types, types named in the paper, dosed 78 weeks, study length 92 weeks) “negative (inactive)”; (mouse, strain Charles River CD1, males, in feed, site: liver, lesion: adenoma, dosed 78 weeks, study length 92 weeks) “negative (inactive)”. Also, the carcinogen call is “negative (inactive)” (mouse, strain Charles River CD1, males, in feed, site: liver, lesion: carcinoma, dosed 78 weeks, study length 92 weeks); “negative (inactive)” (mouse, strain Charles River CD1, males, in feed, site: lung, lesion: carcinoma, dosed 78 weeks, study length 92 weeks); “negative (inactive)” (rat, strain Long-Evans, females, in feed, site: any site (literature study), lesion: benign tumor, dosed 78 weeks, study length 104 weeks); “negative (inactive)” (rat, strain Long-Evans, males, in feed, site: any site (literature study), lesion: benign tumor, dosed 78 weeks, study length 104 weeks).

With `O=CNNc1nc(-c2ccco2)cs1`, for the setting “rat, strain Sprague-Dawley, females, in feed, site: any site (literature study), lesion: several types, types named in the paper, dosed 46 weeks, study length 64 weeks”, the carcinogen call was “negative (inactive)”.

Take `COc1cc(S(C)=O)ccc1-c1nc2ccncc2[nH]1` (configuration not stated): the TD50 is 450 mg/kg/day (rat, strain Fischer 344, females, in feed, site: adrenal medulla, lesion: pheochromocytoma, benign, dosed 104 weeks, study length 104 weeks); 385 mg/kg/day (rat, strain Fischer 344, females, in feed, site: adrenal medulla, lesion: several types, types named in the paper, dosed 104 weeks, study length 104 weeks); 45.4 mg/kg/day (rat, strain Fischer 344, males, in feed, site: adrenal medulla, lesion: pheochromocytoma, benign, dosed 104 weeks, study length 104 weeks); 481 mg/kg/day (rat, strain Fischer 344, males, in feed, site: adrenal medulla, lesion: pheochromocytoma, malignant, dosed 104 weeks, study length 104 weeks); 38.8 mg/kg/day (rat, strain Fischer 344, males, in feed, site: adrenal medulla, lesion: several types, types named in the paper, dosed 104 weeks, study length 104 weeks).

Take `S=c1nc[nH]c2nc[nH]c12`: the TD50 reads like this: (rat, strain BR 46, males, i.v., site: any site (literature study), lesion: several types, types named in the paper, dosed 52 weeks, study length 104 weeks) 58.1 mg/kg/day (inactive); (rat, strain F344/DuCrj, females, in feed, site: adrenal gland, lesion: pheochromocytoma, dosed 104 weeks, study length 113 weeks) 22.5 mg/kg/day; (rat, strain F344/DuCrj, females, in feed, site: any site (literature study), lesion: malignant tumor, dosed 104 weeks, study length 113 weeks) 10.3 mg/kg/day; (rat, strain F344/DuCrj, females, in feed, site: any site (literature study), lesion: several types, types named in the paper, dosed 104 weeks, study length 113 weeks) 4.74 mg/kg/day; (rat, strain F344/DuCrj, females, in feed, site: central nervous system, lesion: several types, types named in the paper, dosed 104 weeks, study length 113 weeks) 34.1 mg/kg/day; (rat, strain F344/DuCrj, females, in feed, site: liver, lesion: hepatocellular carcinoma, dosed 104 weeks, study length 113 weeks) 139 mg/kg/day. Where the note is “rat, strain F344/DuCrj, females, in feed, site: uterus, lesion: adenocarcinoma, dosed 104 weeks, study length 113 weeks”, this compound returned a TD50 of 34.1 mg/kg/day.

Take `COc1cc(OC)c2c3c(c(=O)oc2c1)CCC3`: where the note is “rat, strain Fischer, males, by gavage, site: liver, lesion: one or several types, types not named, dosed 52 weeks, study length 87 weeks”, the carcinogen call was “negative (inactive)”.

As to `O=CCBr`, the carcinogen call by setting is: (mouse, strain B6C3F1, females, in drinking water, site: any site (literature study), lesion: several types, types named in the paper, dosed 80 weeks, study length 80 weeks) “negative (inactive)”; (mouse, strain B6C3F1, females, in drinking water, site: lung, lesion: one or several types, types not named, dosed 80 weeks, study length 80 weeks) “negative (inactive)”; (mouse, strain B6C3F1, males, in drinking water, site: any site (literature study), lesion: several types, types named in the paper, dosed 78 weeks, study length 78 weeks) “negative (inactive)”; (mouse, strain B6C3F1, males, in drinking water, site: liver, lesion: one or several types, types not named, dosed 78 weeks, study length 78 weeks) “negative (inactive)”; (mouse, strain B6C3F1, males, in drinking water, site: lung, lesion: papillary tumor, dosed 78 weeks, study length 78 weeks) “negative (inactive)”. Besides, the TD50 runs as follows: (mouse, strain B6C3F1, females, in drinking water, site: forestomach, lesion: squamous-cell papilloma, dosed 80 weeks, study length 80 weeks) 2520 mg/kg/day (inactive); (mouse, strain B6C3F1, females, in drinking water, site: liver, lesion: hemangioma, dosed 80 weeks, study length 80 weeks) 1020 mg/kg/day (inactive); (mouse, strain B6C3F1, males, in drinking water, site: forestomach, lesion: squamous-cell papilloma, dosed 78 weeks, study length 78 weeks) 1890 mg/kg/day (inactive).

Compound `C=C1CC[C@H](O)C/C1=C/C=C1\CCC[C@]2(C)[C@@H]([C@H](C)/C=C/[C@H](C)C(C)C)CC[C@@H]12` had a TD50 (mouse, strain C3H (MTV+), females, in feed, site: mammary gland, lesion: adenocarcinoma, dosed 104 weeks, study length 104 weeks) of 39.6 mg/kg/day.

Take `Clc1cccc(-c2cc(Cl)cc(Cl)c2)c1`: the TD50 reads like this: (rat, strain Sprague-Dawley, females, in feed, site: liver, lesion: hepatocellular adenoma, dosed 104 weeks, study length 104 weeks) 59.3 mg/kg/day; (rat, strain Sprague-Dawley, females, in feed, site: liver, lesion: hepatocellular carcinoma, dosed 104 weeks, study length 104 weeks) 598 mg/kg/day; (rat, strain Sprague-Dawley, females, in feed, site: liver, lesion: several types, types named in the paper, dosed 104 weeks, study length 104 weeks) 53.9 mg/kg/day; (rat, strain Sprague-Dawley, males, in feed, site: liver, lesion: several types, types named in the paper, dosed 104 weeks, study length 104 weeks) 872 mg/kg/day.

`Nc1nc(N)nc(-c2cc(Cl)ccc2Cl)n1`: the carcinogen call (rat, strain Wistar, males, in feed, site: liver, lesion: one or several types, types not named, dosed 55 weeks, study length 55 weeks) was “negative (inactive)”.

`Cc1ccc2c(c1)C(N1CCN(C)CC1)=Nc1ccccc1S2`: the carcinogen call is, setting by setting: (rat, strain albino, females, in feed, site: mammary gland, lesion: fibroadenoma, dosed 78 weeks, study length 78 weeks) “negative (inactive)”; (rat, strain albino, males, in feed, site: pituitary gland, lesion: adenoma, dosed 78 weeks, study length 78 weeks) “negative (inactive)”.

In general, TD50 refers to the 50% point of the dose-response relation for the toxic effect studied.
